# Publication PMC12566703, “Design, Synthesis, In Vitro and In Silico Biological Evaluation of New Pyridine-2,5-Dicarboxylates Esters Bearing Natural Source Fragments as Anti-Trypanosomatid Agents” (Pharmaceutics, 2025)
# Where two headings read alike, the source gives them in different places.
# Experiments:
# [1] = Cytotoxicity assay, MTT method, 48 h; type: cell-based, murine; conditions: mouse, J774.2 macrophage cells, J774.2 cell line, read-out: Macrophage J774.2 CC50 (µM ± SD)
# Protocol: A cytotoxicity assay was performed using the murine macrophage J774.2 cell line, which was recloned from the original ascites and solid tumor J774.1 (according to the manufacturer). The cells were cultured in RPMI medium supplemented with 10% SBF, 100 U […] penicillin, 100 µg/mL streptomycin, and glutamine (2 mM), and 5% CO2 atmosphere. The medium was changed every 2–3 days. Macrophages were used at 1 × 10^6 cells and were incubated with compounds at different concentrations (0.75–100 µM, respectively) at 37 °C for 48 h in a 5% CO2 atmosphere. DMSO was used as a negative control (0.2%). The metabolic activity of macrophages was determined by the MTT method. The percentage of cell viability was calculated, and the half-maximal cytotoxic concentration (CC50) was determined using probit analysis. Three independent assays were conducted in triplicate.
# [2] = tested on: L. mexicana (MHOM/MX/2017/UABJO17FCQEPS) (FCQEPS) promastigotes; assay: In vitro leishmanicidal activity, MTT method, 48 h; type: cell-based, Leishmania mexicana; conditions: for Selectivity Index L. mexicana FCQEPS: CC50 (J774.2)/IC50; for IC50: Leishmania mexicana, 48 h, read-out: L. mexicana IC50 (µM ± SD) FCQEPS; for IC50 / Leishmanicidal activity class in words, FCQEPS strain: promastigotes, FCQEPS strain; for Leishmanicidal activity class in words, FCQEPS strain: classes by IC50
# Protocol: (§1) To determine the leishmanicidal activity of pyridine-2,5-dicarboxylates, the parasites, in their logarithmic growth phase (5 × 10^5 parasites/mL), were cultured in 96-well microliter plates with the corresponding pyridine-2,5-dicarboxylate compound at different concentrations (0.78–100 µM). Compounds were dissolved in DMSO in a final volume of 200 µL for 48 h at 26 °C. Parasites treated with DMSO (0.2%) were used as a negative control, while treatments with Glucantime and Amphotericin B, at the same concentrations, were used as positive controls. The metabolic activity of the cells was determined using the 3-(4,5-Dimethylthiazol-2-yl)-2,5-diphenyltetrazolium bromide (MTT) method. IC50 was determined using probit analysis. Three independent experiments were performed in triplicate, and the data were analyzed for statistical significance (p < 0.05) using Biostat 5.3.0 software.
# [3] = tested on: L. mexicana (MNYC/BZ/62/M379) (M379) promastigotes; assay: In vitro leishmanicidal activity, MTT method, 48 h; type: cell-based, Leishmania mexicana; conditions: for Selectivity Index L. mexicana M379: CC50 (J774.2)/IC50; for IC50: 48 h, read-out: L. mexicana IC50 (µM ± SD) M379; for IC50 / Leishmanicidal activity class in words, M379 strain: promastigotes, M379 strain; for Leishmanicidal activity class in words, M379 strain: classes by IC50
# Protocol: as §1
# [4] = tested on: T. cruzi (NINOA) epimastigotes; assay: In vitro trypanocidal activity, Alamar Blue assay, 48 h; type: cell-based, Trypanosoma cruzi; conditions: for Selectivity Index T. cruzi NINOA: CC50 (J774.2)/IC50; for IC50: 48 h, read-out: T. cruzi IC50 (µM ± SD) NINOA; for IC50 / Trypanocidal activity class in words, NINOA strain: epimastigotes, NINOA strain; for Trypanocidal activity class in words, NINOA strain: classes by IC50
# Protocol: (§2) Both strains were maintained in liver infusion tryptose (LIT) medium supplemented with 10% FBS and 0.1% penicillin-streptomycin. They were preserved by transferring 1 × 10^6 parasites/mL into a new culture medium every week. […] The metabolic activity was determined by the Alamar Blue assay. Briefly, after the incubation period, 20 µL of 2.5 mM resazurin solution was added to each well and incubated for 3 h. Three independent experiments were performed in triplicate. The half-maximum inhibitory concentration (IC50) was determined using probit analysis.
# [5] = tested on: T. cruzi (A1) epimastigotes; assay: as above; type: cell-based, Trypanosoma cruzi; conditions: for Selectivity Index T. cruzi A1: CC50 (J774.2)/IC50; for IC50: 48 h
# Protocol: as §2
# [6] = Trypanosoma cruzi, epimastigotes, A1 strain, read-out: T. cruzi IC50 (µM ± SD) A1
# [7] = epimastigotes, A1 strain, read-out: T. cruzi IC50 (µM ± SD) A1
SMILES,CC50 at 48 h [1] [µM],Selectivity Index L. mexicana FCQEPS [2],IC50 [2] [µM],Selectivity Index L. mexicana M379 [3],IC50 ([3]; Leishmania mexicana) [µM],"Leishmanicidal activity class in words, M379 strain [3]",Selectivity Index T. cruzi NINOA [4],Selectivity Index T. cruzi A1 [5],"IC50 [5, 6] [µM]","Trypanocidal activity class in words, A1 strain ([5]; epimastigotes, A1 strain, classes by IC50)",IC50 ([4]; Trypanosoma cruzi) [µM],IC50 [4] [µM],"Trypanocidal activity class in words, NINOA strain [4]","IC50 [5, 7] [µM]","Leishmanicidal activity class in words, FCQEPS strain [2]",IC50 [3] [µM],"IC50 ([5]; Trypanosoma cruzi, read-out: T. cruzi IC50 (µM ± SD) A1, epimastigotes, A1 strain, 48 h) [µM]","IC50 ([5]; read-out: T. cruzi IC50 (µM ± SD) A1, epimastigotes, A1 strain) [µM]"
CCOC(=O)c1nc(C)c(C(=O)OCC=Cc2ccccc2)cc1-c1ccc(C)cc1 [Compound 7b],> 200,>1.7,116.71 ± 0.03,>1,> 200,did not have antiparasitic activity,>2.0,>1,> 200,completely lose their trypanocidal activity,,,,,,,,
"CCOC(=O)c1nc(C)c(C(=O)O[C@@H]2C[C@@H](C)CC[C@H]2C(C)C)cc1-c1ccc(F)cc1 [Compound 8c, 2-Ethyl 5-((1R,2S,5S)-2-isopropyl-5-methylcyclohexyl) 3-(4-fluorophenyl)-6-methylpyridine-2,5-dicarboxylate]",> 200,>2.2,90.9 ± 5,>1,> 200,,>4.3,>9.2,,,≤ 56.7,46 ± 3.33,,,,,,
CCOC(=O)c1nc(C)c(C(=O)OCCC(C)CCC=C(C)C)cc1-c1ccccc1 (stereo not drawn) [Compound 11a],119 ± 7.3,1.6,73 ± 1.78,,> 200,did not have antiparasitic activity,,,> 200,,> 200,,inactive,,,,,
"CCOC(=O)c1nc(C)c(C(=O)OCc2ccccc2)cc1-c1ccc(C)cc1 [Compound 4b, 5-Benzyl 2-ethyl 6-methyl-3-(p-tolyl)pyridine-2,5-dicarboxylate]",> 200,>1,> 200,>1,> 200,did not have antiparasitic activity,>7.5,>3.8,≤ 56.7,,,,,52.6 ± 1.87,,,,
CCOC(=O)c1nc(C)c(C(=O)OCCC(C)CCC=C(C)C)cc1-c1ccc(F)cc1 (stereo not drawn) [Compound 11c],> 200,>1,> 200,>1,> 200,inactive,>2.5,>8.0,24.9 ± 4.1,,79.9 ± 2.6,,,,abolished their leishmanicidal activity,,,
CCOC(=O)c1nc(C)c(C(=O)OCC23CC4CC(CC(C4)C2)C3)cc1-c1ccc(C)cc1 [Compound 10b],> 200,>2.1,92.93 ± 0.02,>1,> 200,,,>1.8,111 ± 1.14,,< 26.4,20.98 ± 0.15,,,,,,
CCOC(=O)c1nc(C)c(C(=O)OCc2ccc3c(c2)OCO3)cc1-c1ccc(C)cc1 [Compound 6b],> 200,>1,> 200,>1,> 200,did not have antiparasitic activity,>3.7,>4.0,50.2 ± 2.31,,54 ± 2.29,,,,,,,
CCOC(=O)c1nc(C)c(C(=O)OC2C[C@@H]3CC[C@@]2(C)C3(C)C)cc1-c1ccc(F)cc1 (stereo partly drawn) [Compound 9c],> 200,>1,> 200,>1,> 200,inactive,>7.6,>1,> 200,,26.2,26.2 ± 1.55,,,,,,
CCOC(=O)c1nc(C)c(C(=O)O[C@@H]2C[C@@H](C)CC[C@@H]2C(C)C)cc1-c1ccccc1 [Compound 8a],> 200,>2.4,82.7,>2.5,79.1,,>1,>1,> 200,,,,inactive,,,,,
CCOC(=O)c1nc(C)c(C(=O)O[C@@H]2C[C@@H](C)CC[C@@H]2C(C)C)cc1-c1ccc(C)cc1 [Compound 8b],> 200,>1,,>1,,,>1.8,>3.9,,,106.9 ± 0.5,> 200,slight activity,,,,,
CCOC(=O)c1nc(C)c(C(=O)OCC=Cc2ccccc2)cc1-c1ccc(F)cc1 [Compound 7c],> 200,>1,> 200,>1,> 200,inactive,>3.1,>8.8,22.8 ± 0.69,,63.1 ± 1.64,,,,,,,
CCOC(=O)c1cc(-c2ccc(C)cc2)c(C(=O)OCC)nc1C [Compound 3b],> 200,>1,> 200,>1,> 200,did not have antiparasitic activity,>3.3,>1.9,106 ± 1.16,,59.3,59.4 ± 1.45,,,,,,
CCOC(=O)c1nc(C)c(C(=O)OCC23CC4CC(CC(C4)C2)C3)cc1-c1ccc(F)cc1 [Compound 10c],> 200,>1,> 200,>3.6,< 56,,>4.0,>5.2,38.2 ± 2.86,,50.6 ± 1.06,,,,abolished their leishmanicidal activity,54.8,,
"CCOC(=O)c1nc(C)c(C(=O)OCc2ccccc2)cc1-c1ccccc1 [Compound 4a, 5-Benzyl 2-ethyl 6-methyl-3-phenylpyridine-2,5-dicarboxylate]",> 200,>1,> 200,>1,> 200,did not have antiparasitic activity,>4.7,>7.0,≤ 56.7,,≤ 56.7,42.4 ± 1.88,,28.5 ± 1.5,did not have leishmanicidal activity,,,
"CC1CS(=O)(=O)CCN1/N=C/c1ccc([N+](=O)[O-])o1 (stereo not drawn) [Nfx, Nifurtimox, reference compound]",,,,,,,,,19.3 ± 0.08,,7.09 ± 0.12,,,,,,,
"O=C(Cn1ccnc1[N+](=O)[O-])NCc1ccccc1 [Bzn, Benznidazole, reference compound]",,,,,,,,,,,,,,,,,< 39,39.08 ± 0.07
